From article PMC6404347, “CHCHD4 confers metabolic vulnerabilities to tumour cells through its control of the mitochondrial respiratory chain” (Cancer & Metabolism, 2019)

Molecular target: T1, mitochondrial respiratory chain complex I (CI) (Bos taurus, UniProt P03887+P17694+P42026)
T1 construct: gene NDUFS2; whole CI enzyme immunocaptured from purified bovine heart mitochondria
Assay: MitoTox Complex I OXPHOS Activity Microplate Assay (immunocaptured enzyme), dose-response
Type: biochemical

T1 sequence (P17694 34-463): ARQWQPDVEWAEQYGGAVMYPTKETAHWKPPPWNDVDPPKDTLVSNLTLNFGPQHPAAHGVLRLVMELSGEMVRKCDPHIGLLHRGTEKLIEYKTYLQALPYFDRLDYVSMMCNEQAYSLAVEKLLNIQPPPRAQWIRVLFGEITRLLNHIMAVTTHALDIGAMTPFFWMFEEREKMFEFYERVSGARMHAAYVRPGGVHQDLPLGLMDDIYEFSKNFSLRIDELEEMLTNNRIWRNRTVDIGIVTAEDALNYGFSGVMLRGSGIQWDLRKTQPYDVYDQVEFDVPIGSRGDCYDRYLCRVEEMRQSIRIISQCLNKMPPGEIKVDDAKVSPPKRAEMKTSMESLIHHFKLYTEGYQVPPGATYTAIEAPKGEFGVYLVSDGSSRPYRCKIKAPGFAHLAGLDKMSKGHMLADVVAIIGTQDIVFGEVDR
T1 sequence (P42026 38-216): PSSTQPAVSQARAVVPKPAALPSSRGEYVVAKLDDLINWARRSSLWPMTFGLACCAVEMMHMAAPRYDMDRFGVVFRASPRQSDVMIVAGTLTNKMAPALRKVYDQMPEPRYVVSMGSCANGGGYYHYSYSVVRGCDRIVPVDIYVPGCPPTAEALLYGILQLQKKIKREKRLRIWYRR
T1 sequence (P03887 whole entry): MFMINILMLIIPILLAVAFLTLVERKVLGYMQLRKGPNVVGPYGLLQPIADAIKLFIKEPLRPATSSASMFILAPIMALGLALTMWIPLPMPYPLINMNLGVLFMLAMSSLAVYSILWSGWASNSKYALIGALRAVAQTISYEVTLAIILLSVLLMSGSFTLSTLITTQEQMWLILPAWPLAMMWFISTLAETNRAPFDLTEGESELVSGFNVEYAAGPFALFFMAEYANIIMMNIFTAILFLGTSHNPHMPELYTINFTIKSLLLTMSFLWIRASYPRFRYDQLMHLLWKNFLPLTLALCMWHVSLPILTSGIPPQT

Cc1cc(-c2nc(-c3ccc(OC(F)(F)F)cc3)no2)nn1Cc1ccnc(N2CCN(C3CC3)CC2)c1 [BAY 87-2243]
IC50: ~0.5 µM
